Assay results as given in patent publication US20030018025A1, “Certain 4-aminomethyl-2-substituted imidazole derivatives and 2-aminomethyl-4-substituted imidazole derivatives: new classes of dopamine receptor subtype specific ligands” (Neurogen Corporation, Corporation of the State of Delaware, priority 1995, published 2003).
Structures can show the parent of a compound that is named as a salt.

Row | Structure (SMILES) | melting point [°C]
1 | O=C(c1ccccc1)c1ncc(CN2CCN(c3ncccn3)CC2)[nH]1 [Compound 116, 2-(benzoyl)-4(5)-[(4-(2-pyrimidinyl)-piperazin-1-yl)-methyl]-imidazole] | 177 to 179
2 | c1cnc(N2CCN(Cc3cnc(C4CCCCC4)[nH]3)CC2)nc1 [Compound 128, 2-cyclohexyl-4(5)-[(4-(2-pyrimidinyl)-piperizin-1-yl)-methyl]-imidazole] | 210 to 213
3 | c1ccc(-c2ncc(CCCN3CCN(c4ncccn4)CC3)[nH]2)cc1 [Compound 125, 2-phenyl-4(5)-[(4-(2-pyrimidinyl)-piperazin-1-yl)-propan-1-yl]-imidazole] | 133 to 135
4 | Clc1ccc(N2CCN(Cc3cnc(-c4ccccc4)[nH]3)CC2)cc1Cl [Compound 61, 2-Phenyl-4(5)-[(4(3,4-dichlorophenyl)-piperazin-1-yl-)methyl]imidazole] | 179 to 181
5 | Fc1ccccc1-c1ncc(CN2CCC(c3ccccc3)CC2)[nH]1 (as salt: maleate) [Compound 52, 2-(2-Fluorophenyl)-4(5)[(4-phenyl-piperidin-1-yl)-methyl]-imidazole dimaleate] | 142 to 144
6 | Ic1nc(-c2ccccc2)[nH]c1CN1CCN(c2ncccn2)CC1 (as salt: hydroiodid) [Compound 90, 2-phenyl-5-iodo-4(5)-[(4-(2-pyrimidinyl)piperazin-1-yl)methyl]-imidazole hydroiodide salt] | 196 to 199
7 | CCc1ccc(OC)c(-c2ncc(CN3CCN(c4ccccc4OC)CC3)[nH]2)c1 (as salt: hydrochloride) [Compound 55, 2-(5-Ethyl-2-methoxyphenyl-4(5)-[(4-(2-methoxyphenyl)-piperazin-1-yl)-methyl]-imidazoledihydrochloride] | 61 to 64
8 | c1ccc(-c2ncc(CCN3CCN(c4ncccn4)CC3)[nH]2)cc1 [Compound 143, 2-phenyl-4(5)-[(4-(2-pyrimidinyl)-piperazin-1-yl)-ethan-1-yl]-imidazole] | 142 to 144
9 | Fc1ccnc(N2CCN(Cc3cnc(-c4ccccc4)[nH]3)CC2)n1 (as salt: hydrochloride) [Compound 58, 2-Phenyl-4(5)-[(4-(4-fluoro-2-pyrimidinyl)-piperazin-1yl)-methyl]imidazole dihydrochloride] | 188 to 190
10 | COc1ccc(-c2nc(CN3CCC(c4ccccc4)CC3)c[nH]2)cc1 (as salt: hydrochloride) [Compound 47, 2-(4-Methoxyphenyl) -4(5)[(4-phenyl-piperidin-1-yl)-methyl]-imidazole dihydrochloride] | 196 to 199
11 | c1ccc(-c2nc(-c3ccccc3)c(CN3CCN(c4ncccn4)CC3)[nH]2)cc1 [Compound 132, 2,5-diphenyl-4(5)-[(4-(2-pyrimidinyl)piperazin-1-yl)methyl]-imidazole] | 221 to 225
12 | c1ccc(CC2CCN(Cc3cnc(-c4cccc5ccccc45)[nH]3)CC2)cc1 [Compound 92, 2-(1-naphthyl)-4(5)-[(4-benzyl-piperidin-1-yl)-methyl]imidazole] | 81 to 83
13 | COc1ccc(Cl)cc1-c1ncc(CN2CCN(c3ccccc3OC)CC2)[nH]1 (as salt: hydrochloride) [Compound 43, 2-(5-Chloro-2-methoxyphenyl)-4(5)-[(4-(2-methoxyphenyl)-piperazin-1-yl)-methyl]-imidazole dihydrochloride] | 138 to 143
14 | COc1ccccc1N1CCN(Cc2cnc(-c3ccccc3)[nH]2)CC1 [Compound 19, 2-phenyl-4-(5)-[(4-(2-methoxyphenyl)-piperazin-1-yl)-methyl]imidazole] | 105 to 107
15 | O=C(/C=C/c1cnc(-c2ccccc2)[nH]1)N1CCN(c2ncccn2)CC1 [Compound 119, 2-phenyl-4(5)-[(4-(2-pyrimidinyl)-piperazin-1-yl)-propen-1-oyl]-imidazole] | 235 to 236
